Consider 10 molecules from ChEMBL document CHEMBL4680368, “Myeloid Cell Leukemia-1 Inhibitors as Emerging Cancer Treatment” (ACS Med Chem Lett, 2021).

Each structure is given as a SMILES string.

System in the first assay: not listed separately
The assay is described as follows: Induction of apoptosis in human MOLP8 cells assessed as increase in caspase 3/7 activation incubated for 2 hrs by luminometric caspase-glo 3/7 assay. Type of assay: functional, cell-based. The note with it: MOLP-8, 2 h.
As usually defined, the AC50 is the midpoint of the concentration-response curve, whichever way the signal moves. With `C[C@@H]1[C@@H](C)C/C=C(\F)[C@H](COCC(=O)O)N2CC[C@H]2CN2C[C@@]3(CCCc4cc(Cl)ccc43)COc3ccc(cc32)C(=O)NS1(=O)=O`, the AC50 came to 5990 nM. As for `C[C@@H]1[C@@H](C)C/C=C(\F)[C@H](CN2CCN3CCOC[C@@H]3C2)N2CC[C@H]2CN2C[C@@]3(CCCc4cc(Cl)ccc43)COc3ccc(cc32)C(=O)NS1(=O)=O`, the AC50 is 120 nM. Same read-out and setting: the value for `C[C@@H]1[C@@H](C)C/C=C(\F)C(CO)(CO)N2CC[C@H]2CN2C[C@@]3(CCCc4cc(Cl)ccc43)COc3ccc(cc32)C(=O)NS1(=O)=O` was 2390 nM. For the molecule `COC[C@H]1/C(F)=C/C[C@H](C)[C@@H](C)S(=O)(=O)NC(=O)c2ccc3c(c2)N(C[C@@H]2CCN21)C[C@@]1(CCCc2cc(Cl)ccc21)CO3`, the AC50 was 181 nM.

`COCCCOC[C@H]1/C(F)=C/C[C@H](C)[C@@H](C)S(=O)(=O)NC(=O)c2ccc3c(c2)N(C[C@@H]2CCN21)C[C@@]1(CCCc2cc(Cl)ccc21)CO3`: the AC50 stood at 274 nM. Same read-out and setting: the value for `COCCOCC1(COCCOC)/C(F)=C/C[C@H](C)[C@@H](C)S(=O)(=O)NC(=O)c2ccc3c(c2)N(C[C@@H]2CCN21)C[C@@]1(CCCc2cc(Cl)ccc21)CO3` was 152 nM; that for `C[C@@H]1[C@@H](C)C/C=C(\F)[C@H](COc2ccccn2)N2CC[C@H]2CN2C[C@@]3(CCCc4cc(Cl)ccc43)COc3ccc(cc32)C(=O)NS1(=O)=O` was 1490 nM. With `C[C@@H]1[C@@H](C)C/C=C(\F)[C@H](COCCCN2CCOCC2)N2CC[C@H]2CN2C[C@@]3(CCCc4cc(Cl)ccc43)COc3ccc(cc32)C(=O)NS1(=O)=O`, the half-maximal activity concentration (AC50) turned out to be 231 nM. As for `C[C@@H]1[C@@H](C)C/C=C(\F)CN2CC[C@H]2CN2C[C@@]3(CCCc4cc(Cl)ccc43)COc3ccc(cc32)C(=O)NS1(=O)=O`, the AC50 came out at 692 nM. With `C[C@@H]1[C@@H](C)C/C=C(\F)[C@H](CO)N2CC[C@H]2CN2C[C@@]3(CCCc4cc(Cl)ccc43)COc3ccc(cc32)C(=O)NS1(=O)=O`, the concentration at half-maximal activity (AC50) came to 144 nM.

In a further assay the target is Induced myeloid leukemia cell differentiation protein Mcl-1 (Homo sapiens, UniProt Q07820). The assay is described as follows: Inhibition of Terbium-labeled BIM BH3 peptide binding to MCL1 (unknown origin) incubated for 60 mins by HTRF assay.
Chain of Induced myeloid leukemia cell differentiation protein Mcl-1 (Q07820 whole entry): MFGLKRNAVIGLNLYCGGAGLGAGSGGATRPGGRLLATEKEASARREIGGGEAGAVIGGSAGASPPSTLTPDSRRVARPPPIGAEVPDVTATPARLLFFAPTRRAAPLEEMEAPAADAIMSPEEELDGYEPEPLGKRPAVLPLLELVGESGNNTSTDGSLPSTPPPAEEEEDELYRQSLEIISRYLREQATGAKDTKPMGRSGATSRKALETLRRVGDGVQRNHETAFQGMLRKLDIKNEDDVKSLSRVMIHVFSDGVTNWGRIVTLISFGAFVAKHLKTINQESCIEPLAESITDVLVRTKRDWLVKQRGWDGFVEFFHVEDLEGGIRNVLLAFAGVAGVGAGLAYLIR
Conditions: not given
(In TR-FRET formats the signal depends on donor and acceptor labels being close together.)
For orientation: Ki means the equilibrium dissociation constant of an inhibitor or competing ligand from its target. Consider `COCCOCC1(COCCOC)/C(F)=C/C[C@H](C)[C@@H](C)S(=O)(=O)NC(=O)c2ccc3c(c2)N(C[C@@H]2CCN21)C[C@@]1(CCCc2cc(Cl)ccc21)CO3`, for which the Ki stood at 0.25 nM. Take `C[C@@H]1[C@@H](C)C/C=C(\F)CN2CC[C@H]2CN2C[C@@]3(CCCc4cc(Cl)ccc43)COc3ccc(cc32)C(=O)NS1(=O)=O`: the Ki is 0.84 nM.
